The target in data set [1] is T1, angiotensin II receptor subtype 1 (AT1) (Oryctolagus cuniculus, UniProt P34976).
T1 construct: receptor : from adrenal glands in rabbits; from tissue; host or cells: rabbit adrenal glands
T1 sequence (P34976 1-359): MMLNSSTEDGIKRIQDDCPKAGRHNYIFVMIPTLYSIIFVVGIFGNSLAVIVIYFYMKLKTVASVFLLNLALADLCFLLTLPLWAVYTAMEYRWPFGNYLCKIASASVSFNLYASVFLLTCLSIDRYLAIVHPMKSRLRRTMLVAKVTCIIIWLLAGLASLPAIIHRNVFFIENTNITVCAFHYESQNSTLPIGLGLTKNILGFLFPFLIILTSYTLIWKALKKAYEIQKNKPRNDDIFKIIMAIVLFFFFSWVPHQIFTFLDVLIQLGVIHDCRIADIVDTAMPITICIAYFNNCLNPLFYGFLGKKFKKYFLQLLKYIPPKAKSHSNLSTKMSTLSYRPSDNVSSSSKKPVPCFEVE
The data set is described as follows: Binding to receptors: angiotensin II receptor subtype 1 (AT1). On the set-up: species or system rabbits (adrenal glands). The conditions noted are these: rabbit adrenal glands, tracer 3H-angiotensin II. As to the method:
In this Example, the affinity to the angiotensin II receptor subtype 1 or subtype 2 was evaluated by a binding assay in accordance with the method described in Biochem. Pharmacol., 33, 4057-4062 (1984).
Specifically, the measurement of the total binding in the presence of each drug was performed as follows:
A mixture (final volume=0.25 ml) of a drug in a given concentration (the drug was dissolved in DMSO, and diluted to a double volume with a buffer attached to a drug discovery system to prepare a sample for the assay; 0.025 ml), a tracer (0.025 ml), and receptors (0.2 ml) was incubated [in the case of the angiotensin II receptor subtype 1 (AT1), at room temperature for 3 hours, and in the case of the subtype 2 (AT2), at 37° C. for 1 hour]. Then, the reaction mixture was filtered with suction (GF/C filter was used in AT1, and GF/B filter was used in AT2). The filter papers after filtration with suction (the tracer bound to the receptors) were counted by a γ-well counter (ARC-500, Aloka). The non-specific bindings were measured by repeating the above method, except that a large excess amount of a displacer was added. The specific binding of the drug in the given concentration was calculated by subtracting the non-specific binding from the total binding, respectively.
receptor : from adrenal glands in rabbits
tracer : ^3 Hangiotensin II

Data set [2] relates to kidney disease model rats. The data set is described as follows: Survival time of kidney diseased animals. Format: in vivo, Sprague-Dawley female rats. The conditions noted are these: 20 mg/kg/day with drinking water, observation period eight weeks (upper limit); control 5.0. The procedure: (§1) The compounds of the present invention and the reference substance were administered with drinking water to kidney disease model rats, and the action of lowering the blood pressure was observed. The kidney disease model rats were prepared by a ligature of branches of renal artery in accordance with a conventional method. Namely, the left hilum renalis of Sprague-Dawley female rats was exposed under anesthesia, and one of four secondary branches of the renal artery was left unligated, while the remaining three branches were ligated, respectively. After a week, the hilum renalis (artery, vein, and ureter) of the right kidney were further ligated to thereby prepare rats whose renal function was lowered to approximately 1/8 of the normal function. Each group consisted of eight rats. The drugs to be tested (20 mg/kg) were administered to each administering group, and only water was administered to a control group. Two days after the administration, the systolic blood pressure was measured by the tail cuff method using a blood pressure measuring apparatus (UR5000; Ueda).
The kidney disease model rats were prepared as in Example 54. Twenty-two groups (8 rats per group) were prepared in a manner such that there was no major difference between the groups in the serum creatinine value and the blood urea nitrogen value indicating renal function. The rats in each group were allowed to freely take up food. […] To the rats in the control group, only water was administered every day. If kidney diseases are aggravated, the rat will die of uremia. Thus, the survival time was observed as a comprehensive indication of the improvement of the effect on the kidney diseases. The observation period was eight weeks. Thus if all rats survived, the average survival time is eight weeks, and is an upper limit.

In data set [3] the test system is kidney disease model rats. The data set is described as follows: Action to lower blood pressure in kidney disease model rats (tail cuff). Format: in vivo, Sprague-Dawley female rats. The settings on record: systolic, average of 8 rats, 20 mg/kg with drinking water, two days after administration; control 210. As to the method:
as §1

Data set [4] can be described thus: Oral absorption (amount of compound in rat serum by HPLC, area under curve). Format: in vivo, Sprague-Dawley female rats. The conditions noted are these: single dosage 160 mg/kg in water, 0.5 to 24 hours, average of 3 rats. As to the method: Twelve-week-old Sprague-Dawley female rats (3 rats per group) were bred for acclimation for a week. Then, the compounds of the present invention and a reference substrate were dissolved in water, and orally administered to the rats in a single dosage (160 mg/kg). After 0.5 hour, 1 hour, 2 hours, 4 hours, 6 hours, 8 hours, and 24 hours, the amounts of each compound (ng) per 1 ml of serum were measured using HPLC. Curves were obtained from the relation between an elapsed time after administration and the amount of the compound in serum at each elapsed time, respectively, and an average of the areas under the curves was calculated.
As a reference substance, Compound No. 184 disclosed in Japanese Unexamined Patent Publication (Kokai) No. 8-48651 was used. Compound No. 184 corresponds to the compound of the formula (I) wherein R^1 =nBu, A=N, Z=C, R^2 =CO, R^3 =NC4 H8 O, R^4 =H, R^5 =Me, and R^6 =Me.

For data set [5], the system named is kidney disease model rats. The data set is described as follows: Renal function indicatory value in kidney disease model rats. It counts as in vivo, Sprague-Dawley female rats. The conditions noted are these: 20 mg/kg/day with drinking water, six weeks. The procedure: as §1, with “The” for “The compounds of the present invention and the reference substance were administered with drinking water to kidney disease model rats, and the action of lowering the blood pressure was observed. The”
The rats in each group were allowed to freely take up food. […] To the rats in the control group, only water was administered every day. After six weeks, 0.2 ml of blood was collected from the carotid artery of the rats under anesthesia, and centrifuged to obtain serum. Using 25 μl of the serum, the serum creatinine (Scr) was measured by a creatinine analytical instrument (Beckman). Using 10 μl of the serum, the blood urea nitrogen (BUN) was measured by a BUN analytical instrument (Beckman). The creatinine clearance was evaluated as follows:
After the serum creatinine measurement, rats were placed in urinary metabolic cages for 24 hours to collect urine. A urinary creatine concentration (Ucr) was measured by a creatinine analytical instrument, and a total volume of urination (Uvol) was also measured. The creatinine clearance (CCr) was calculated by the following formula: [formula]

Another data set relates to ICR female mice. The data set is described as follows: Acute toxicity, single oral dose in mice. The conditions noted are these: mouse, in vivo. As to the method: The aromatic compounds of the formula (I) according to the present invention were orally administered to mice at the dose of 500 mg/kg, but no fatalities were observed over a period of one week.
Five-week-old ICR female mice (5 mice per group) were bred for acclimation for a week. Then, the compounds of the present invention were dissolved in water, and orally administered to the mice in a single dosage (500 mg/kg).

Here are results for two compounds from patent publication US5863913A, “Aromatic compound and pharmaceutical composition” (Kureha Chemical Industry Co., Ltd., priority 1996, dated 1999).

Turning to `CCCCC(=O)N(Cc1ccc(C(=O)O)cc1)c1cc(C(=O)N2CCN(CCC)CC2)ccc1N(C)C` [Compound No. 11, 4-dimethylamino-3-N-[[(4-carboxyphenyl)methyl]valeramido]benzoic acid 4'-n-propylpiperazide], in data set [1], 100 µM produced 0% inhibition. In addition, the Average survival time in data set [2] is recorded as 7.3 weeks. Besides, in data set [3], the “Blood Pressure” value stood at 204 mmHg. For the same compound, the AUC (in general, concentration integrated over time) at 24 h in data set [4] turned out to be 76000 ng·h/mL. Besides, the Creatinine clearance in data set [5] (24 hours urine, control 0.22) turned out to be 0.42 mL/min. Also, in data set [5] (serum, control 2.0), the Creatinine worked out at 1.2 mg/dL. Moreover, the Blood urea nitrogen in data set [5] (serum, control 100) was determined as 62 mg/dL. Moreover, in the data set with ICR female mice, the “Number of deaths/number of survivals” value is given as 0/5.

In the case of `CCCCC(=O)N(Cc1ccc(C(=O)O)cc1)c1cc(C(=O)N2CCOCC2)ccc1N(C)C` [reference substance, 3-N-[[(4-carboxyphenyl)methyl]valeramido]-4-dimethylaminobenzoic acid morpholide, reference compound], the AUC at 24 h in data set [4] amounted to 622 ng·h/mL.
